This assay has as its system LINC00518. The experiment in a line: LINC00518 expression by RT-qPCR in cells treated with MAPK pathway inhibitors. The note with it: 501Mel and A375 cells, between 12-72 hours after treatment.

Protocol: Activated Caspase 3 was measured by FACS.
Samples were taken at the indicated time points, total RNA was extracted, retrotranscribed and analyzed by qPCR for LINC00518 expression. B. LINC00518 RNA levels were quantified from scRNAseq of melanoma patient derived xenotransplants (PDXs) treated with Dabrafenib and Trametinib (GSE116237). […] LINC00518 RNA levels were quantified from RNA sequencing of melanoma patients treated with Durvalumab and Trametinib for 15 days (GSE158403). […] Cytoplasmic and mitochondrial RNA fractions were extracted, retrotranscribed and analyzed by qPCR for LINC00518 expression. […] Oxygen consumption rate (OCR) was measured using Agilent Seahorse. Basal and Maximal OCR and reserve capacity were calculated on the basis of OCR changes upon oligomycin (oligo), FCCP and Rotenone A (RotA) administration to the cells.
Total mRNA isolation was performed using the Genelute Mammalian Total RNA Miniprep Kit (Sigma) following manufacturer instructions, or using Trizol and isopropanol precipitation. […] Total and fractionated RNAs were treated with DNAsel following the TurboDnase free kit instructions (Thermofisher) and reversed transcribed using Superscript IV reverse transcriptase (Thermofisher) following manufacturer instructions. qRT-PCR was carried out with SYBR Green I (Roche) and monitored by a LightCycler 480 (Roche). […]

As to `CC(C)(C)c1nc(-c2cccc(NS(=O)(=O)c3c(F)cccc3F)c2F)c(-c2ccnc(N)n2)s1` [Dabrafenib], the LINC00518 expression result is “up-regulation”.

Source of the values: patent US20230090446A1, “ANTISENSE OLIGONUCLEOTIDE TARGETING LINC00518 FOR TREATING MELANOMA” (UNIVERSITE DE STRASBOURG, priority 2020, published 2023).
